Test results as given in ChEMBL document CHEMBL3272130, “Synthesis and hypotensive activity of some cyclopentano-1,2,3,4-tetrahydroisoquinolines” (J Med Chem, 1977).

Legend:
Rattus norvegicus [1] = test: Hypotensive activity in deoxycorticosterone acetate treated hypertensive CD rat assessed as change in blood pressure at 100 mg, ip after 1 hr relative to control; assay type: functional
Rattus norvegicus [2] = test: Hypotensive activity in deoxycorticosterone acetate treated hypertensive CD rat assessed as change in blood pressure at 100 mg, ip after 2 hrs relative to control; assay type: functional
Rattus norvegicus [3] = test: Hypotensive activity in deoxycorticosterone acetate treated hypertensive CD rat assessed as change in blood pressure at 100 mg, ip after 4 hrs relative to control; assay type: functional
Rattus norvegicus [4] = test: Hypotensive activity in deoxycorticosterone acetate treated hypertensive CD rat assessed as change in blood pressure at 100 mg, ip after 24 hrs relative to control; assay type: functional
Rattus norvegicus [5] = test: Cardiovascular activity in deoxycorticosterone acetate treated hypertensive CD rat assessed as change in heart rate at 100 mg, ip after 1 hr relative to control; assay type: ADME, organism-based; settings: in vivo
Rattus norvegicus [6] = test: Cardiovascular activity in deoxycorticosterone acetate treated hypertensive CD rat assessed as change in heart rate at 100 mg, ip after 2 hrs relative to control; assay type: ADME, organism-based; settings: in vivo
Rattus norvegicus [7] = test: Cardiovascular activity in deoxycorticosterone acetate treated hypertensive CD rat assessed as change in heart rate at 100 mg, ip after 4 hrs relative to control; assay type: ADME, organism-based; settings: in vivo
Rattus norvegicus [8] = test: Cardiovascular activity in deoxycorticosterone acetate treated hypertensive CD rat assessed as change in heart rate at 100 mg, ip after 24 hrs relative to control; assay type: ADME, organism-based; settings: in vivo
[9] = Toxicity in ip dosed Swiss-Webster mouse after 24 hrs; assay type: organism-based; settings: in vivo
Rattus norvegicus [10] = test: Hypotensive activity in deoxycorticosterone acetate treated hypertensive CD rat assessed as change in blood pressure at 20 mg, ip after 1 hr relative to control; assay type: functional
Rattus norvegicus [11] = test: Hypotensive activity in deoxycorticosterone acetate treated hypertensive CD rat assessed as change in blood pressure at 20 mg, ip after 2 hrs relative to control; assay type: functional
Rattus norvegicus [12] = test: Hypotensive activity in deoxycorticosterone acetate treated hypertensive CD rat assessed as change in blood pressure at 20 mg, ip after 4 hrs relative to control; assay type: functional
Rattus norvegicus [13] = test: Hypotensive activity in deoxycorticosterone acetate treated hypertensive CD rat assessed as change in blood pressure at 20 mg, ip after 24 hrs relative to control; assay type: functional
Rattus norvegicus [14] = test: Cardiovascular activity in deoxycorticosterone acetate treated hypertensive CD rat assessed as change in heart rate at 20 mg, ip after 1 hr relative to control; assay type: ADME, organism-based; settings: in vivo
Rattus norvegicus [15] = test: Cardiovascular activity in deoxycorticosterone acetate treated hypertensive CD rat assessed as change in heart rate at 20 mg, ip after 2 hrs relative to control; assay type: ADME, organism-based; settings: in vivo
Rattus norvegicus [16] = test: Cardiovascular activity in deoxycorticosterone acetate treated hypertensive CD rat assessed as change in heart rate at 20 mg, ip after 4 hrs relative to control; assay type: ADME, organism-based; settings: in vivo
Rattus norvegicus [17] = test: Cardiovascular activity in deoxycorticosterone acetate treated hypertensive CD rat assessed as change in heart rate at 20 mg, ip after 24 hrs relative to control; assay type: ADME, organism-based; settings: in vivo
Rattus norvegicus [18] = test: Hypotensive activity in deoxycorticosterone acetate treated hypertensive CD rat assessed as change in blood pressure at 50 mg, ip after 1 hr relative to control; assay type: functional
Rattus norvegicus [19] = test: Hypotensive activity in deoxycorticosterone acetate treated hypertensive CD rat assessed as change in blood pressure at 50 mg, ip after 2 hrs relative to control; assay type: functional
Rattus norvegicus [20] = test: Hypotensive activity in deoxycorticosterone acetate treated hypertensive CD rat assessed as change in blood pressure at 50 mg, ip after 4 hrs relative to control; assay type: functional
Rattus norvegicus [21] = test: Hypotensive activity in deoxycorticosterone acetate treated hypertensive CD rat assessed as change in blood pressure at 50 mg, ip after 24 hrs relative to control; assay type: functional
Rattus norvegicus [22] = test: Cardiovascular activity in deoxycorticosterone acetate treated hypertensive CD rat assessed as change in heart rate at 50 mg, ip after 1 hr relative to control; assay type: ADME, organism-based; settings: in vivo
Rattus norvegicus [23] = test: Cardiovascular activity in deoxycorticosterone acetate treated hypertensive CD rat assessed as change in heart rate at 50 mg, ip after 2 hrs relative to control; assay type: ADME, organism-based; settings: in vivo
Rattus norvegicus [24] = test: Cardiovascular activity in deoxycorticosterone acetate treated hypertensive CD rat assessed as change in heart rate at 50 mg, ip after 4 hrs relative to control; assay type: ADME, organism-based; settings: in vivo
Rattus norvegicus [25] = test: Cardiovascular activity in deoxycorticosterone acetate treated hypertensive CD rat assessed as change in heart rate at 50 mg, ip after 24 hrs relative to control; assay type: ADME, organism-based; settings: in vivo

Structure (SMILES)	LD50 at 24 h [9] [mg/kg]	Activity (Rattus norvegicus [18]) [%]	Activity (Rattus norvegicus [19]) [%]	Activity (Rattus norvegicus [20]) [%]	Activity (Rattus norvegicus [21]) [%]	Activity (Rattus norvegicus [22]) [%]	Activity (Rattus norvegicus [23]) [%]	Activity (Rattus norvegicus [24]) [%]	Activity (Rattus norvegicus [25]) [%]	further results
COc1c2c(c3c(c1OC)CN(CCC(c1ccccc1)c1ccccc1)CC3)CCC2	1000	–	–	–	–	–	–	–	–	Activity (Rattus norvegicus [1]): -3.5%; Activity (Rattus norvegicus [2]): -7.9%; Activity (Rattus norvegicus [3]): -6.7%; Activity (Rattus norvegicus [4]): -7%; Activity (Rattus norvegicus [5]): 4%; Activity (Rattus norvegicus [6]): 4.6%; Activity (Rattus norvegicus [7]): 0.8%; Activity (Rattus norvegicus [8]): 0.6%
COc1ccc(CC(=O)N2CCc3c4c(c(OC)c(OC)c3C2)CCC4)cc1OC	160	–	–	–	–	–	–	–	–	Activity (Rattus norvegicus [10]): 5.4%; Activity (Rattus norvegicus [11]): -3.9%; Activity (Rattus norvegicus [12]): -6.3%; Activity (Rattus norvegicus [13]): -3.1%; Activity (Rattus norvegicus [14]): 1.9%; Activity (Rattus norvegicus [15]): 1.8%; Activity (Rattus norvegicus [16]): 1.3%; Activity (Rattus norvegicus [17]): -6.7%
Br.CN1CCc2c(O)c(O)c3c(c2C1)CCC3	160	-9.1	-3.5	-5.7	-8.6	-1.9	5.1	4.6	-8.6	–
COc1c2c(c3c(c1OC)CN(CC(c1ccccc1)c1ccccc1)CC3)CCC2	> 1000	–	–	–	–	–	–	–	–	Activity (Rattus norvegicus [10]): 1.4%; Activity (Rattus norvegicus [11]): 1.1%; Activity (Rattus norvegicus [12]): -2.9%; Activity (Rattus norvegicus [13]): -3%; Activity (Rattus norvegicus [1]): -10.7%; Activity (Rattus norvegicus [2]): -12.7%; Activity (Rattus norvegicus [3]): -11.2%; Activity (Rattus norvegicus [4]): -3.6%; Activity (Rattus norvegicus [14]): 7.4%; Activity (Rattus norvegicus [15]): 10.7%; Activity (Rattus norvegicus [16]): 0.8%; Activity (Rattus norvegicus [17]): -5%; Activity (Rattus norvegicus [5]): 8.7%; Activity (Rattus norvegicus [6]): 2.4%; Activity (Rattus norvegicus [7]): 2.4%; Activity (Rattus norvegicus [8]): -2.4%
COc1ccc(C(=O)N2CCc3c4c(c(OC)c(OC)c3C2)CCC4)cc1OC	150	–	–	–	–	–	–	–	–	Activity (Rattus norvegicus [10]): -4%; Activity (Rattus norvegicus [11]): -1.4%; Activity (Rattus norvegicus [12]): -3.1%; Activity (Rattus norvegicus [13]): 5.6%; Activity (Rattus norvegicus [14]): 3.8%; Activity (Rattus norvegicus [15]): 8.9%; Activity (Rattus norvegicus [16]): 2.2%; Activity (Rattus norvegicus [17]): 5.7%
COc1c2c(c3c(c1OC)CCN(CC(c1ccccc1)c1ccccc1)C3)CCC2	> 1000	–	–	–	–	–	–	–	–	Activity (Rattus norvegicus [1]): -5%; Activity (Rattus norvegicus [2]): -3.4%; Activity (Rattus norvegicus [3]): -2%; Activity (Rattus norvegicus [4]): 4%; Activity (Rattus norvegicus [5]): 18.5%; Activity (Rattus norvegicus [6]): 25.4%; Activity (Rattus norvegicus [7]): 8.6%; Activity (Rattus norvegicus [8]): -0.5%
CC(=O)Oc1c2c(c3c(c1OC(C)=O)CN(C)CC3)CCC2.O=C(O)C(F)(F)F	200	-13.1	5.2	-0.6	-5.1	14.6	7.3	2.6	0.3	–
COc1ccc(CC(=O)N2CCc3c(c4c(c(OC)c3OC)CCC4)C2)cc1OC	500	–	–	–	–	–	–	–	–	–
COc1c2c(c3c(c1OC)CN(C(=O)CC(c1ccccc1)c1ccccc1)CC3)CCC2	100	–	–	–	–	–	–	–	–	Activity (Rattus norvegicus [10]): -4.4%; Activity (Rattus norvegicus [11]): -6.9%; Activity (Rattus norvegicus [12]): -5%; Activity (Rattus norvegicus [13]): -2.1%; Activity (Rattus norvegicus [14]): 16.8%; Activity (Rattus norvegicus [15]): 15.8%; Activity (Rattus norvegicus [16]): 2.4%; Activity (Rattus norvegicus [17]): -1.8%
COc1c2c(c3c(c1OC)CCN(C(=O)C(c1ccccc1)c1ccccc1)C3)CCC2	200	–	–	–	–	–	–	–	–	–
C[C@](N)(Cc1ccc(O)c(O)c1)C(=O)O [METHYLDOPA]	–	-31	-50	-47.7	-16.5	106.2	104.1	31	-19.3	–
Br.CN1CCc2c(c(O)c(O)c3c2CCC3)C1	150	-1.1	2.6	3	-3.6	8.2	4.8	4.1	3	–
Br.COc1ccc(CCN2CCc3c4c(c(OC)c(OC)c3C2)CCC4)cc1OC	125	-26	-11.3	-6.6	-2.8	22	17.6	5.4	2.4	–
Br.COc1ccc(CN2CCc3c(c4c(c(OC)c3OC)CCC4)C2)cc1OC	200	-8.4	-2.4	-1	3.3	0.4	0.4	1	-9.1	–
CC(=O)Oc1c2c(c3c(c1OC(C)=O)CCN(C)C3)CCC2	150	–	–	–	–	–	–	–	–	–
Br.COc1c2c(c3c(c1OC)CN(C)CC3)CCC2	100	-3	-2.9	-6.3	-4.6	-8.7	-4.4	1.6	-3.8	Activity (Rattus norvegicus [10]): 6.3%; Activity (Rattus norvegicus [11]): 5.5%; Activity (Rattus norvegicus [12]): -4.2%; Activity (Rattus norvegicus [13]): -2.9%; Activity (Rattus norvegicus [14]): 3.5%; Activity (Rattus norvegicus [15]): 9.2%; Activity (Rattus norvegicus [16]): 8.5%; Activity (Rattus norvegicus [17]): 1.5%
COc1ccc(C(=O)N2CCc3c(c4c(c(OC)c3OC)CCC4)C2)cc1OC	> 1000	–	–	–	–	–	–	–	–	Activity (Rattus norvegicus [1]): -12.1%; Activity (Rattus norvegicus [2]): -8.8%; Activity (Rattus norvegicus [3]): -3.4%; Activity (Rattus norvegicus [4]): -6%; Activity (Rattus norvegicus [5]): 0.2%; Activity (Rattus norvegicus [6]): 3.4%; Activity (Rattus norvegicus [7]): -1.2%; Activity (Rattus norvegicus [8]): -6.5%
Br.COc1ccc(CCN2CCc3c(c4c(c(OC)c3OC)CCC4)C2)cc1OC	100	–	–	–	–	–	–	–	–	–
COc1ccc(CN2CCc3c4c(c(OC)c(OC)c3C2)CCC4)cc1OC.Cl	141	-8.8	-4.2	-0.7	0.9	13	9	10.2	-1.3	–
